In ChEMBL document CHEMBL1201862, “PubChem BioAssay data set” (2004):
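Interpolation was linear, between the two tested concentrations surrounding the appropriate level; five concentrations were tested over 48 hours in 96-well plates. The concentration for 50% growth inhibition is given as GI50.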 Active and inactive are the calls of the source. Cut-off read from the data, not from the text of the source: active = GI50 up to about 1.1 µM and inactive = higher.

Assays:
Test in all cases: DTP human tumour cell line panel, 48 h
786-0 = system: 786-0
A549 = system: A549
ACHN = system: ACHN
CCRF-CEM = system: CCRF-CEM
HCC 2998 = system: HCC 2998
IGROV-1 = system: IGROV-1
M14 = system: M14
OVCAR-3 = system: OVCAR-3
OVCAR-8 = system: OVCAR-8
SF-295 = system: SF-295
SW-620 = system: SW-620
UO-31 = system: UO-31
A498 = system: A498
HL-60 = system: HL-60
K562 = system: K562
NCI-H226 = system: NCI-H226
OVCAR-5 = system: OVCAR-5
UACC-257 = system: UACC-257
MDA-MB-231 = system: MDA-MB-231

Measured: GI50

CC(C)COC1Sc2ccccc2S1
inactive: 786-0 22.3 µM | A549 20.5 µM | ACHN 15.7 µM | CCRF-CEM 27.7 µM | HCC 2998 28.7 µM | IGROV-1 5.35 µM | M14 20.6 µM | OVCAR-3 19.6 µM | OVCAR-8 29.1 µM | SF-295 16.4 µM | SW-620 29.7 µM | UO-31 15.5 µM

CC(=O)O/N=C/c1ncccc1CO
inactive: 786-0 > 100 µM | A498 > 100 µM | A549 > 100 µM | ACHN > 100 µM | CCRF-CEM > 100 µM | HL-60 > 100 µM | IGROV-1 > 100 µM | K562 > 100 µM | M14 > 100 µM | NCI-H226 > 100 µM | OVCAR-3 > 100 µM | OVCAR-5 > 100 µM | OVCAR-8 > 100 µM | SF-295 > 100 µM | SW-620 > 100 µM | UACC-257 > 100 µM | UO-31 > 100 µM

CC1(C)OC2CC3COC(=O)C3CC2O1 (configuration not stated)
inactive: 786-0 > 100 µM | A498 > 100 µM | A549 > 100 µM | ACHN > 100 µM | CCRF-CEM > 100 µM | HCC 2998 > 100 µM | HL-60 > 100 µM | IGROV-1 > 100 µM | K562 > 100 µM | M14 > 100 µM | NCI-H226 > 100 µM | OVCAR-3 > 100 µM | OVCAR-5 > 100 µM | OVCAR-8 > 100 µM | SF-295 > 100 µM | SW-620 > 100 µM | UACC-257 > 100 µM | UO-31 > 100 µM

O=C(Nc1c(O)[nH]c(=S)[nH]c1=O)c1ccco1
inactive: 786-0 > 100 µM | A498 > 100 µM | A549 > 100 µM | ACHN > 100 µM | CCRF-CEM > 100 µM | HL-60 > 100 µM | IGROV-1 > 100 µM | K562 > 100 µM | M14 > 100 µM | NCI-H226 > 100 µM | OVCAR-3 > 100 µM | OVCAR-5 > 100 µM | OVCAR-8 > 100 µM | SF-295 > 100 µM | SW-620 > 100 µM | UACC-257 > 100 µM | UO-31 > 100 µM

Cc1ccc(S(=O)(=O)OCC23CCC(C2)C2CC23)cc1 (configuration not stated)
inactive: 786-0 > 100 µM | A498 > 100 µM | A549 > 100 µM | ACHN > 100 µM | CCRF-CEM > 100 µM | HCC 2998 > 100 µM | HL-60 31.6 µM | IGROV-1 > 100 µM | K562 > 100 µM | M14 > 100 µM | NCI-H226 > 100 µM | OVCAR-3 > 100 µM | OVCAR-5 > 100 µM | OVCAR-8 > 100 µM | SF-295 > 100 µM | SW-620 > 100 µM | UACC-257 52.1 µM | UO-31 > 100 µM

N#C/C(=C\c1ccc(O)c(O)c1)c1c(C#N)c(N)nn1-c1ccccc1
inactive: 786-0 7.67 µM | A498 2.76 µM | A549 10.1 µM | ACHN 8 µM | CCRF-CEM 4.11 µM | HCC 2998 9.66 µM | HL-60 7.85 µM | IGROV-1 4.17 µM | K562 3.94 µM | M14 9.29 µM | OVCAR-3 2.04 µM | OVCAR-5 33 µM | OVCAR-8 5.82 µM | SF-295 15.7 µM | SW-620 12.8 µM | UACC-257 15.5 µM | UO-31 6.47 µM

COc1cc2nc(NCCCCCNC(=O)c3ccco3)nc(N)c2cc1OC
inactive: 786-0 21.5 µM | A498 80.2 µM | A549 74.8 µM | ACHN 52.5 µM | CCRF-CEM 28.5 µM | HCC 2998 19.4 µM | HL-60 21.4 µM | IGROV-1 41.1 µM | K562 29.1 µM | M14 18.5 µM | NCI-H226 32.7 µM | OVCAR-3 24.7 µM | OVCAR-5 38.3 µM | OVCAR-8 33.7 µM | SF-295 37.2 µM | SW-620 22.5 µM | UACC-257 19.5 µM | UO-31 > 100 µM

O=[N+]([O-])c1ccccc1/C=N/C12CC3CC(CC(C3)C1)C2
inactive: 786-0 52.4 µM | A498 > 100 µM | A549 > 100 µM | ACHN > 100 µM | CCRF-CEM 30.9 µM | HCC 2998 38.1 µM | HL-60 21.4 µM | IGROV-1 > 100 µM | K562 29.8 µM | M14 56.1 µM | NCI-H226 > 100 µM | OVCAR-3 32.3 µM | OVCAR-5 > 100 µM | OVCAR-8 75 µM | SF-295 > 100 µM | SW-620 46.6 µM | UACC-257 > 100 µM | UO-31 > 100 µM

O=C(N/C(=C\c1ccc(/C=C(\NC(=O)c2ccccc2)c2nc3c(O)nc(S)nc3[nH]2)cc1)c1nc2c(O)nc(S)nc2[nH]1)c1ccccc1
inactive: 786-0 > 100 µM | A498 40.6 µM | A549 > 100 µM | ACHN 95.7 µM | CCRF-CEM 26.2 µM | HCC 2998 > 100 µM | IGROV-1 > 100 µM | K562 30.3 µM | M14 > 100 µM | OVCAR-3 > 100 µM | OVCAR-5 > 100 µM | OVCAR-8 74.6 µM | SF-295 > 100 µM | SW-620 46.6 µM | UACC-257 > 100 µM | UO-31 > 100 µM

C=C(Br)C(C)(Cl)CCC(Br)C(C)(C)Br (configuration not stated)
inactive: 786-0 > 100 µM | A549 40.9 µM | ACHN > 100 µM | CCRF-CEM 22.5 µM | HL-60 19.9 µM | IGROV-1 > 100 µM | K562 27.4 µM | M14 50.4 µM | NCI-H226 > 100 µM | OVCAR-5 37.2 µM | OVCAR-8 > 100 µM | SF-295 47.2 µM | SW-620 79.8 µM | UACC-257 78.7 µM | UO-31 84.3 µM

COc1cc(C(C)O)c[n+](CCC2CNc3ccccc32)c1 (configuration not stated)
inactive: 786-0 > 100 µM | A498 > 100 µM | A549 > 100 µM | ACHN > 100 µM | CCRF-CEM > 100 µM | HCC 2998 > 100 µM | HL-60 > 100 µM | IGROV-1 > 100 µM | K562 > 100 µM | M14 > 100 µM | NCI-H226 73.1 µM | OVCAR-3 26.1 µM | OVCAR-8 > 100 µM | SF-295 > 100 µM | SW-620 > 100 µM | UACC-257 > 100 µM | UO-31 > 100 µM

CCOC(=N)/C(=C1\OC(=N)C(c2ccc(Cl)cc2)=C1O)c1ccc(Cl)cc1
inactive: 786-0 17.8 µM | A498 17.8 µM | A549 23.4 µM | ACHN 21.3 µM | CCRF-CEM 18.2 µM | HCC 2998 18.1 µM | HL-60 17.3 µM | IGROV-1 28.9 µM | K562 19.8 µM | M14 17.4 µM | NCI-H226 20.5 µM | OVCAR-3 18 µM | OVCAR-5 19.4 µM | OVCAR-8 15.4 µM | SF-295 25.3 µM | SW-620 17.6 µM | UACC-257 17.2 µM | UO-31 17.5 µM

CN(C)C(=O)c1ccc([N+](=O)[O-])cc1
inactive: 786-0 > 100 µM | A498 > 100 µM | A549 > 100 µM | ACHN > 100 µM | CCRF-CEM > 100 µM | HCC 2998 > 100 µM | HL-60 > 100 µM | IGROV-1 > 100 µM | K562 > 100 µM | M14 > 100 µM | NCI-H226 > 100 µM | OVCAR-3 > 100 µM | OVCAR-5 > 100 µM | OVCAR-8 > 100 µM | SF-295 > 100 µM | SW-620 > 100 µM | UACC-257 > 100 µM | UO-31 > 100 µM

NC(Cc1c2ccccc2cc2ccccc12)C(=O)O (configuration not stated)
inactive: 786-0 > 100 µM | A549 > 100 µM | ACHN 83 µM | CCRF-CEM 94.8 µM | HCC 2998 > 100 µM | HL-60 > 100 µM | IGROV-1 48.3 µM | K562 > 100 µM | M14 > 100 µM | MDA-MB-231 > 100 µM | NCI-H226 22.5 µM | OVCAR-3 > 100 µM | OVCAR-5 > 100 µM | OVCAR-8 8.09 µM | SF-295 > 100 µM | SW-620 70.5 µM | UACC-257 > 100 µM | UO-31 78.7 µM

Nc1nc2c3c(ncn3CC(O)CO2)n1 (configuration not stated)
inactive: 786-0 > 100 µM | A498 > 100 µM | A549 > 100 µM | ACHN > 100 µM | CCRF-CEM > 100 µM | HCC 2998 > 100 µM | HL-60 > 100 µM | IGROV-1 > 100 µM | K562 > 100 µM | M14 > 100 µM | NCI-H226 > 100 µM | OVCAR-3 > 100 µM | OVCAR-5 > 100 µM | OVCAR-8 > 100 µM | SF-295 > 100 µM | SW-620 > 100 µM | UACC-257 > 100 µM | UO-31 > 100 µM

O/N=C1/CCC/C1=C\c1ccccc1
inactive: 786-0 > 100 µM | A549 > 100 µM | ACHN > 100 µM | CCRF-CEM > 100 µM | HCC 2998 > 100 µM | HL-60 28.6 µM | IGROV-1 > 100 µM | K562 74.1 µM | M14 > 100 µM | NCI-H226 > 100 µM | OVCAR-3 > 100 µM | OVCAR-5 67.5 µM | OVCAR-8 > 100 µM | SF-295 > 100 µM | SW-620 > 100 µM | UACC-257 > 100 µM | UO-31 > 100 µM
